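Growth conditions: 96-well plates. Treatment: test compound, 48 hours, 5 concentrations. Analysis: linear interpolation between bracketing concentrations; unreached endpoints set to highest concentration. Definition used: TGI = concentration required for complete inhibition of growth.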
Tests used:
Assay in all cases: growth of human tumour cells (NCI), 48 h
[1] = test system: OVCAR-3 ovarian
[2] = test system: SK-MEL-28 melanoma
[3] = test system: IGROV1 ovarian
[4] = test system: HCC-2998 colon
[5] = test system: A549 NSCLC
[6] = test system: SF-268 CNS
[7] = test system: EKVX NSCLC
[8] = test system: SR leukemia
[9] = test system: CAKI-1 renal
[10] = test system: NCI-H226 lung
[11] = test system: OVCAR-4 ovarian
[12] = test system: SK-OV-3 ovarian
[13] = test system: CCRF-CEM leukemia
[14] = test system: SNB-75 CNS
[15] = test system: SN12C renal
[16] = test system: SNB-19 CNS
[17] = test system: MDA-MB-231 breast
[18] = test system: OVCAR-8 ovarian
[19] = test system: HCT-116 colon
[20] = test system: HOP-92 NSCLC
[21] = test system: MDA-MB-435
[22] = test system: ACHN renal
[23] = test system: COLO 205 colon
[24] = test system: NCI-H522 lung
[25] = test system: LOX IMVI melanoma
[26] = test system: SF-295 CNS
[27] = test system: T-47D breast
[28] = test system: HOP-62 NSCLC
[29] = test system: MALME-3M melanoma
[30] = test system: UACC-62 melanoma
[31] = test system: A498 renal
[32] = test system: UACC-257 melanoma
[33] = test system: SF-539 CNS
[34] = test system: HT29 colon
[35] = test system: NCI-H460 lung
[36] = test system: HCT-15 colon
[37] = test system: M14 melanoma
[38] = test system: KM12 colon
[39] = test system: 786-0 renal
[40] = test system: HL-60(TB) leukemia
[41] = test system: NCI/ADR-RES ovarian
[42] = test system: U251 CNS
[43] = test system: MCF7 breast
[44] = test system: SW-620 colon
[45] = test system: MOLT-4 leukemia
[46] = test system: TK-10 renal
[47] = test system: DU-145 prostate
[48] = test system: OVCAR-5 ovarian
[49] = test system: MDA-N
[50] = test system: K-562 leukemia
[51] = test system: RXF 393 renal
[52] = test system: HS 578T breast
[53] = test system: NCI-H23 lung
[54] = test system: SK-MEL-5 melanoma
[55] = test system: PC-3 prostate
[56] = test system: RPMI-8226 leukemia
[57] = test system: SK-MEL-2 melanoma
[58] = test system: UO-31 renal

CCOC(=O)c1c(SC(=O)C(C)(C)Oc2ccc(Cl)cc2)n(-c2ccccc2)c(=S)n(-c2ccccc2)c1=O
TGI [1]: > 100 µM
TGI [2]: > 100 µM
TGI [3]: 36 µM
TGI [4]: > 100 µM
TGI [5]: 65.3 µM
TGI [6]: 43.9 µM
TGI [7]: > 100 µM
TGI [8]: 52.3 µM
TGI [9]: > 100 µM
TGI [10]: > 100 µM
TGI [11]: > 100 µM
TGI [12]: > 100 µM
TGI [13]: 75.5 µM
TGI [14]: > 100 µM
TGI [15]: 67.8 µM
TGI [16]: > 100 µM
TGI [17]: 47.9 µM
TGI [18]: 42.1 µM
TGI [19]: 49 µM
TGI [20]: > 100 µM
TGI [21]: > 100 µM
TGI [22]: 44.4 µM
TGI [23]: 39.3 µM
TGI [24]: 84.3 µM
TGI [25]: > 100 µM
TGI [26]: > 100 µM
TGI [27]: > 100 µM
TGI [28]: 60.1 µM
TGI [29]: 72.7 µM
TGI [30]: > 100 µM
TGI [31]: 98.9 µM
TGI [32]: > 100 µM
TGI [33]: 41.7 µM
TGI [34]: 66.4 µM
TGI [35]: 52.8 µM
TGI [36]: > 100 µM
TGI [37]: > 100 µM
TGI [38]: 50 µM
TGI [39]: > 100 µM
TGI [40]: > 100 µM
TGI [41]: > 100 µM
TGI [42]: 41 µM
TGI [43]: 57.2 µM
TGI [44]: 55.2 µM
TGI [45]: 58 µM
TGI [46]: > 100 µM
TGI [47]: > 100 µM
TGI [48]: > 100 µM
TGI [49]: > 100 µM
TGI [50]: > 100 µM
TGI [51]: 73.4 µM
TGI [52]: > 100 µM
TGI [53]: > 100 µM

N=C1N(/N=C/c2ccccn2)C(=Nc2ccccc2)C(=S)N1c1ccccc1
TGI [2]: 23 µM
TGI [3]: 18.8 µM
TGI [4]: 22 µM
TGI [5]: 23.8 µM
TGI [6]: 18.3 µM
TGI [7]: 15.9 µM
TGI [8]: > 100 µM
TGI [9]: 20 µM
TGI [10]: 32.9 µM
TGI [11]: 23.9 µM
TGI [12]: 42.8 µM
TGI [13]: > 100 µM
TGI [14]: 42.2 µM
TGI [15]: 17.9 µM
TGI [16]: 31.2 µM
TGI [17]: 19.8 µM
TGI [18]: 13.8 µM
TGI [19]: 8.34 µM
TGI [20]: 22.9 µM
TGI [21]: 17.4 µM
TGI [22]: 7.96 µM
TGI [23]: 5.36 µM
TGI [24]: 3.72 µM
TGI [54]: 16.5 µM
TGI [25]: 11.3 µM
TGI [26]: 19 µM
TGI [27]: 21.1 µM
TGI [28]: 22 µM
TGI [29]: 22.8 µM
TGI [30]: 4.61 µM
TGI [55]: 15.8 µM
TGI [31]: 39.5 µM
TGI [32]: 21.3 µM
TGI [33]: 15.8 µM
TGI [34]: 13.6 µM
TGI [35]: 15.9 µM
TGI [56]: > 100 µM
TGI [57]: 12.8 µM
TGI [36]: 12.2 µM
TGI [38]: 17.3 µM
TGI [39]: 13.7 µM
TGI [41]: 10.6 µM
TGI [42]: 20.7 µM
TGI [58]: 16 µM
TGI [44]: 16.3 µM
TGI [45]: > 100 µM
TGI [46]: 22.9 µM
TGI [47]: 13.4 µM
TGI [48]: 17.5 µM
TGI [49]: 11.8 µM
TGI [50]: > 100 µM
TGI [51]: 16.4 µM
TGI [52]: 29.4 µM
TGI [53]: 19.5 µM

CC(C)(C)C(=O)C(C(=O)c1ccccc1)C(=O)C(C)(C)C
TGI [1]: > 100 µM
TGI [2]: > 100 µM
TGI [3]: > 100 µM
TGI [4]: > 100 µM
TGI [5]: > 100 µM
TGI [6]: > 100 µM
TGI [7]: > 100 µM
TGI [9]: > 100 µM
TGI [10]: > 100 µM
TGI [11]: > 100 µM
TGI [12]: > 100 µM
TGI [13]: > 100 µM
TGI [14]: > 100 µM
TGI [15]: > 100 µM
TGI [16]: > 100 µM
TGI [17]: > 100 µM
TGI [18]: > 100 µM
TGI [19]: > 100 µM
TGI [20]: > 100 µM
TGI [21]: > 100 µM
TGI [22]: > 100 µM
TGI [23]: > 100 µM
TGI [24]: > 100 µM
TGI [54]: > 100 µM
TGI [25]: > 100 µM
TGI [26]: > 100 µM
TGI [27]: > 100 µM
TGI [28]: > 100 µM
TGI [29]: > 100 µM
TGI [55]: > 100 µM
TGI [31]: > 100 µM
TGI [32]: > 100 µM
TGI [33]: > 100 µM
TGI [34]: > 100 µM
TGI [35]: > 100 µM
TGI [56]: > 100 µM
TGI [57]: > 100 µM
TGI [36]: > 100 µM
TGI [37]: > 100 µM
TGI [38]: > 100 µM
TGI [39]: > 100 µM
TGI [40]: > 100 µM
TGI [41]: > 100 µM
TGI [42]: > 100 µM
TGI [58]: > 100 µM
TGI [43]: > 100 µM
TGI [44]: > 100 µM
TGI [45]: > 100 µM
TGI [46]: > 100 µM
TGI [47]: > 100 µM
TGI [48]: > 100 µM
TGI [49]: > 100 µM
TGI [50]: > 100 µM
TGI [51]: > 100 µM
TGI [52]: > 100 µM
TGI [53]: > 100 µM

CC(=O)c1c2c(cc3c1CC1(Cc4cc5c(cc4C1)CCCC5)C3)CCCC2
TGI [1]: > 100 µM
TGI [3]: > 100 µM
TGI [4]: > 100 µM
TGI [5]: > 100 µM
TGI [7]: > 100 µM
TGI [8]: 17.5 µM
TGI [10]: > 100 µM
TGI [11]: > 100 µM
TGI [12]: > 100 µM
TGI [14]: 72.2 µM
TGI [15]: > 100 µM
TGI [17]: > 100 µM
TGI [18]: > 100 µM
TGI [19]: > 100 µM
TGI [20]: > 100 µM
TGI [21]: 53.1 µM
TGI [22]: 38.8 µM
TGI [23]: > 100 µM
TGI [24]: > 100 µM
TGI [54]: 22.3 µM
TGI [25]: > 100 µM
TGI [26]: > 100 µM
TGI [27]: > 100 µM
TGI [28]: > 100 µM
TGI [29]: > 100 µM
TGI [30]: > 100 µM
TGI [55]: > 100 µM
TGI [31]: > 100 µM
TGI [32]: 55.7 µM
TGI [33]: > 100 µM
TGI [34]: > 100 µM
TGI [56]: 81.8 µM
TGI [57]: 51.3 µM
TGI [36]: > 100 µM
TGI [37]: > 100 µM
TGI [38]: > 100 µM
TGI [39]: > 100 µM
TGI [40]: 31.4 µM
TGI [41]: > 100 µM
TGI [42]: > 100 µM
TGI [58]: > 100 µM
TGI [43]: 56.9 µM
TGI [45]: 38.5 µM
TGI [46]: > 100 µM
TGI [48]: > 100 µM
TGI [49]: 56.5 µM
TGI [50]: 29.4 µM
TGI [51]: > 100 µM
TGI [52]: > 100 µM
TGI [53]: > 100 µM

COc1ccc(C2(O)C(S(=O)(=O)c3ccc(C)cc3)=Cc3ccc(OC)cc32)cc1 (configuration not stated)
TGI [2]: > 100 µM
TGI [3]: > 100 µM
TGI [4]: > 100 µM
TGI [5]: > 100 µM
TGI [6]: > 100 µM
TGI [7]: > 100 µM
TGI [8]: > 100 µM
TGI [10]: > 100 µM
TGI [12]: > 100 µM
TGI [13]: > 100 µM
TGI [14]: 60.1 µM
TGI [15]: > 100 µM
TGI [16]: > 100 µM
TGI [17]: > 100 µM
TGI [18]: > 100 µM
TGI [19]: > 100 µM
TGI [21]: > 100 µM
TGI [22]: > 100 µM
TGI [23]: > 100 µM
TGI [24]: > 100 µM
TGI [54]: > 100 µM
TGI [25]: > 100 µM
TGI [26]: 97.4 µM
TGI [27]: > 100 µM
TGI [28]: 77.2 µM
TGI [55]: > 100 µM
TGI [31]: > 100 µM
TGI [32]: > 100 µM
TGI [33]: > 100 µM
TGI [34]: > 100 µM
TGI [35]: > 100 µM
TGI [56]: > 100 µM
TGI [57]: > 100 µM
TGI [36]: > 100 µM
TGI [38]: > 100 µM
TGI [39]: > 100 µM
TGI [40]: > 100 µM
TGI [41]: > 100 µM
TGI [42]: > 100 µM
TGI [43]: > 100 µM
TGI [44]: > 100 µM
TGI [45]: > 100 µM
TGI [46]: > 100 µM
TGI [47]: > 100 µM
TGI [48]: > 100 µM
TGI [49]: > 100 µM
TGI [50]: > 100 µM
TGI [52]: > 100 µM
TGI [53]: > 100 µM
